Experimental data reported in PubChem BioAssay AID248 (DTP/NCI, 2004).
Values joined by “and” are separate entries in the source; they are usually repeats but may differ in a detail not shown here. Identical values can stand only once. Toxic doses and inconclusive results are not listed. No stated cut-off is given here; in the data, active means T/C of 150% or more; inactive means T/C below 125%.

Tested on: L1210 leukemia ip in BDF1 mice, survival T/C
Assay: NCI In Vivo Anticancer Drug Screen. Data for tumor model L1210 Leukemia (intraperitoneal) in B6D2F1 (BDF1) mice
Conditions: higher = longer survival
Procedure, shortened: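 In this screen, tumor-bearing mice given compound are compared to those given vehicle, and their survival values are reported as a treated-to-control quotient.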

[1] = endpoint: mean survival time, dose: 100.0 mg/kg/injection, schedule: Q01DX009 (ip), vehicle: Klucel (hydroxypropylcellulose) (HPC)
[2] = endpoint: mean survival time, dose: 200.0 mg/kg/injection, schedule: Q01DX009 (ip), vehicle: Klucel (hydroxypropylcellulose) (HPC)
[3] = endpoint: mean survival time, dose: 400.0 mg/kg/injection, schedule: Q01DX009 (ip), vehicle: Klucel (hydroxypropylcellulose) (HPC)
[4] = endpoint: mean survival time, dose: 100.0 mg/kg/injection, schedule: Q01DX001 (ip), vehicle: Klucel (hydroxypropylcellulose) (HPC)
[5] = endpoint: mean survival time, dose: 100.0 mg/kg/injection, schedule: Q04DX002 (ip), vehicle: Klucel (hydroxypropylcellulose) (HPC)
[6] = endpoint: mean survival time, dose: 200.0 mg/kg/injection, schedule: Q04DX002 (ip), vehicle: Klucel (hydroxypropylcellulose) (HPC)
[7] = endpoint: mean survival time, dose: 25.0 mg/kg/injection, schedule: Q01DX009 (ip), vehicle: Klucel (hydroxypropylcellulose) (HPC)
[8] = endpoint: mean survival time, dose: 25.0 mg/kg/injection, schedule: Q04DX002 (ip), vehicle: Klucel (hydroxypropylcellulose) (HPC)
[9] = endpoint: mean survival time, dose: 50.0 mg/kg/injection, schedule: Q01DX009 (ip), vehicle: Klucel (hydroxypropylcellulose) (HPC)
[10] = endpoint: mean survival time, dose: 50.0 mg/kg/injection, schedule: Q04DX002 (ip), vehicle: Klucel (hydroxypropylcellulose) (HPC)
[11] = endpoint: mean survival time, dose: 100.0 mg/kg/injection, schedule: Q04DX003 (ip), vehicle: Klucel (hydroxypropylcellulose) (HPC)
[12] = endpoint: mean survival time, dose: 200.0 mg/kg/injection, schedule: Q04DX003 (ip), vehicle: Klucel (hydroxypropylcellulose) (HPC)
[13] = endpoint: mean survival time, dose: 400.0 mg/kg/injection, schedule: Q04DX003 (ip), vehicle: Klucel (hydroxypropylcellulose) (HPC)
[14] = endpoint: mean survival time, dose: 200.0 mg/kg/injection, schedule: Q01DX001 (ip), vehicle: Klucel (hydroxypropylcellulose) (HPC)
[15] = endpoint: mean survival time, dose: 400.0 mg/kg/injection, schedule: Q01DX001 (ip), vehicle: Klucel (hydroxypropylcellulose) (HPC)

Measured: T/C

c1ccc([P+](c2ccccc2)(c2ccccc2)c2ccc([P+](c3ccccc3)(c3ccccc3)c3ccccc3)c3ccccc23)cc1
inactive: endpoint: mean survival time, dose: 0.6 mg/kg/injection, schedule: Q04DX003 (ip), vehicle: Klucel (hydroxypropylcellulose) (HPC) 92 % of control | endpoint: mean survival time, dose: 1.0 mg/kg/injection, schedule: Q04DX003 (ip), vehicle: Klucel (hydroxypropylcellulose) (HPC) 92 % of control | endpoint: mean survival time, dose: 1.5 mg/kg/injection, schedule: Q04DX003 (ip), vehicle: Klucel (hydroxypropylcellulose) (HPC) 92 % of control | endpoint: mean survival time, dose: 2.25 mg/kg/injection, schedule: Q04DX003 (ip), vehicle: Klucel (hydroxypropylcellulose) (HPC) 92 % of control | endpoint: mean survival time, dose: 3.12 mg/kg/injection, schedule: Q04DX003 (ip), vehicle: Klucel (hydroxypropylcellulose) (HPC) 96 % of control | endpoint: mean survival time, dose: 6.25 mg/kg/injection, schedule: Q04DX003 (ip), vehicle: Klucel (hydroxypropylcellulose) (HPC) 94 % of control

CCCCCCCC/C=C\CCCCCCCC(=O)OCCCCCCCCCCCCCCCC
inactive: [1] 104 % of control | [2] 96 % of control | [3] 93 % of control

C[P+]1(CCc2ccc(Cl)cc2)CC(Br)C(Br)C1 (configuration not stated)
inactive: [4] 104 % of control

CN1CCN(CCCN2c3ccccc3Sc3ccc(Cl)cc32)CC1
inactive: [5] 104 % of control | [6] 90 % of control | endpoint: median survival time, dose: 6.25 mg/kg/injection, schedule: Q06HX032 (oral), vehicle: Klucel (hydroxypropylcellulose) (HPC) 97 % of control | endpoint: median survival time, dose: 6.25 mg/kg/injection, schedule: Q06HX044 (oral), vehicle: Klucel (hydroxypropylcellulose) (HPC) 91 % of control | endpoint: median survival time, dose: 12.5 mg/kg/injection, schedule: Q06HX032 (oral), vehicle: Klucel (hydroxypropylcellulose) (HPC) 98 % of control and 107 % of control | endpoint: median survival time, dose: 12.5 mg/kg/injection, schedule: Q06HX044 (oral), vehicle: Klucel (hydroxypropylcellulose) (HPC) 95 % of control and 96 % of control | endpoint: median survival time, dose: 25.0 mg/kg/injection, schedule: Q06HX032 (oral), vehicle: Klucel (hydroxypropylcellulose) (HPC) 97 % of control and 116 % of control | endpoint: median survival time, dose: 25.0 mg/kg/injection, schedule: Q06HX044 (oral), vehicle: Klucel (hydroxypropylcellulose) (HPC) 101 % of control and 76 % of control | endpoint: median survival time, dose: 50.0 mg/kg/injection, schedule: Q06HX032 (oral), vehicle: Klucel (hydroxypropylcellulose) (HPC) 57 % of control and 69 % of control | endpoint: median survival time, dose: 50.0 mg/kg/injection, schedule: Q06HX044 (oral), vehicle: Klucel (hydroxypropylcellulose) (HPC) 93 % of control and 35 % of control

CC1Cc2c(Cl)cc(C(=O)NC(Cc3ccccc3)C(=O)O)c(O)c2C(=O)O1 (configuration not stated)
inactive: endpoint: mean survival time, dose: 0.12 mg/kg/injection, schedule: Q01DX009 (ip), vehicle: saline with Tween-80 95 % of control | endpoint: mean survival time, dose: 0.25 mg/kg/injection, schedule: Q01DX009 (ip), vehicle: saline with Tween-80 93 % of control | endpoint: mean survival time, dose: 0.5 mg/kg/injection, schedule: Q01DX009 (ip), vehicle: saline with Tween-80 96 % of control | endpoint: mean survival time, dose: 1.0 mg/kg/injection, schedule: Q01DX009 (ip), vehicle: saline with Tween-80 96 % of control | endpoint: mean survival time, dose: 50.0 mg/kg/injection, schedule: Q01DX001 (ip), vehicle: carboxymethylcellulose (CMC) 100 % of control | endpoint: mean survival time, dose: 100.0 mg/kg/injection, schedule: Q01DX001 (ip), vehicle: carboxymethylcellulose (CMC) 107 % of control

CN(C)CCCC1(O)c2ccccc2Sc2cc(Cl)ccc21 (configuration not stated)
inactive: [7] 91 % of control | [8] 96 % of control | [9] 91 % of control | [10] 99 % of control | [1] 100 % of control | [5] 101 % of control | endpoint: mean survival time, dose: 150.0 mg/kg/injection, schedule: Q01DX009 (ip), vehicle: Klucel (hydroxypropylcellulose) (HPC) 97 % of control | endpoint: mean survival time, dose: 225.0 mg/kg/injection, schedule: Q01DX009 (ip), vehicle: Klucel (hydroxypropylcellulose) (HPC) 90 % of control

NC(CS)C(=O)O (configuration not stated)
inactive: endpoint: mean survival time, dose: 100.0 mg/kg/injection, schedule: Q01DX001 (ip), vehicle: saline 105 % of control | endpoint: mean survival time, dose: 200.0 mg/kg/injection, schedule: Q01DX001 (ip), vehicle: saline 92 % of control | endpoint: mean survival time, dose: 250.0 mg/kg/injection, schedule: Q01DX Z (ip), vehicle: other 91 % of control | endpoint: mean survival time, dose: 250.0 mg/kg/injection, schedule: Q01DX Z (ip), vehicle: saline 102 % of control | endpoint: mean survival time, dose: 400.0 mg/kg/injection, schedule: Q01DX001 (ip), vehicle: saline 97 % of control | endpoint: mean survival time, dose: 500.0 mg/kg/injection, schedule: Q01DX Z (ip), vehicle: saline 94 % of control | endpoint: mean survival time, dose: 1000.0 mg/kg/injection, schedule: Q01DX Z (ip), vehicle: saline 112 % of control

O=[N+]([O-])c1ccccc1C=Nc1ccccc1O
inactive: [11] 103 % of control | [12] 97 % of control | [13] 94 % of control

CCOP(=O)(OCC)C1=C(P(=O)(OCC)OCC)CCCC1
inactive: endpoint: mean survival time, dose: 9.5 mg/kg/injection, schedule: Q01DX001 (ip), vehicle: other 103 % of control | endpoint: mean survival time, dose: 19.0 mg/kg/injection, schedule: Q01DX001 (ip), vehicle: other 105 % of control | endpoint: mean survival time, dose: 38.0 mg/kg/injection, schedule: Q01DX001 (ip), vehicle: other 95 % of control

Cc1cc(C)c2c(c1)CC2NC(=O)Cc1ccccc1 (configuration not stated)
inactive: [8] 116 % of control | [10] 89 % of control | [5] 92 % of control

Cc1c([N+](=O)[O-])cc(C(C)(C)C)c(OC(=O)Nc2cccc(Cl)c2)c1[N+](=O)[O-]
inactive: endpoint: mean survival time, dose: 12.5 mg/kg/injection, schedule: Q01DX009 (ip), vehicle: Klucel (hydroxypropylcellulose) (HPC) 100 % of control | [7] 94 % of control | [9] 101 % of control

[C-]#[N+]/C=C1\OC(=O)C=C1C
inactive: endpoint: mean survival time, dose: 100.0 mg/kg/injection, schedule: Q04DX002 (ip), vehicle: saline with Tween-80 97 % of control | endpoint: mean survival time, dose: 200.0 mg/kg/injection, schedule: Q04DX002 (ip), vehicle: saline with Tween-80 110 % of control | endpoint: mean survival time, dose: 400.0 mg/kg/injection, schedule: Q04DX002 (ip), vehicle: saline with Tween-80 97 % of control

Cc1ccc(NCc2ccc(N(C)C)cc2)cc1
inactive: [11] 99 % of control | [12] 91 % of control | [13] 93 % of control

CCCCNC(C)(C)CSSSCC(C)(C)NCCCC
inactive: endpoint: mean survival time, dose: 6.25 mg/kg/injection, schedule: Q01DX009 (ip), vehicle: water 102 % of control | endpoint: mean survival time, dose: 12.5 mg/kg/injection, schedule: Q01DX009 (ip), vehicle: water 92 % of control | endpoint: mean survival time, dose: 12.5 mg/kg/injection, schedule: Q04DX003 (ip), vehicle: other 96 % of control | endpoint: mean survival time, dose: 25.0 mg/kg/injection, schedule: Q01DX009 (ip), vehicle: water 92 % of control | endpoint: mean survival time, dose: 25.0 mg/kg/injection, schedule: Q04DX003 (ip), vehicle: other 94 % of control | endpoint: mean survival time, dose: 50.0 mg/kg/injection, schedule: Q01DX009 (ip), vehicle: other 106 % of control | endpoint: mean survival time, dose: 50.0 mg/kg/injection, schedule: Q01DX009 (ip), vehicle: water 103 % of control | endpoint: mean survival time, dose: 50.0 mg/kg/injection, schedule: Q04DX003 (ip), vehicle: other 94 % of control | endpoint: mean survival time, dose: 100.0 mg/kg/injection, schedule: Q01DX009 (ip), vehicle: other 95 % of control

O=C(O)C1C2C=CC(C2)C1C(F)(F)C(F)(F)C(F)(F)F (configuration not stated)
inactive: [4] 102 % of control | [14] 102 % of control | [15] 93 % of control

CC1(C)OC(O)C(C(O)C(O)C(O)C(=O)O)O1 (configuration not stated)
inactive: endpoint: mean survival time, dose: 100.0 mg/kg/injection, schedule: Q04DX002 (ip), vehicle: saline 98 % of control | endpoint: mean survival time, dose: 200.0 mg/kg/injection, schedule: Q04DX002 (ip), vehicle: saline 109 % of control

Cc1cc(OCCO)ccc1Cl
inactive: [5] 108 % of control | [6] 108 % of control | endpoint: mean survival time, dose: 400.0 mg/kg/injection, schedule: Q04DX002 (ip), vehicle: Klucel (hydroxypropylcellulose) (HPC) 108 % of control

Clc1ccc2c(c1)/C(=C\c1ccnc3ccccc13)c1cc(Cl)cc(Cl)c1-2
inactive: [4] 94 % of control | [1] 93 % of control | [11] 93 % of control | [14] 92 % of control | [2] 98 % of control | [12] 88 % of control | [15] 94 % of control | [13] 88 % of control

NC(=S)Nc1ccc(Cc2ccc(NC(N)=S)cc2)cc1
inactive: [1] 98 % of control | [2] 91 % of control | [3] 88 % of control
